Test results: patent US9566342B2, “Compounds for treatment of heart failure” (SOLVOTRIN INNOVATIONS LIMITED, priority 2010, dated 2017)
Values joined by “and” are separate entries in the source; they are usually repeats but may differ in a detail not shown here. Equal entries are not always repeated.

How the values were obtained:
MMP-2 [1] = test: PMA-stimulated CaCo2 cells, zymography of media, MMP-2; type: cell-based; conditions: 150 uM
MMP-2 mRNA = test: TNFα treated human cardiac fibroblasts, MMP-2 transcription (QPCR); type: cell-based; conditions: HCF, 10 ng/mL TNFα 72 hours, 75 or 150 μM
[2] = tested on: Human Peripheral Blood mononuclear cells (PBMC) stimulated with TNF-α; test: MMPs, TIMP-1 and inflammatory markers in supernatants of PBMC stimulated with TNF-α; type: cell-based
MMP-9 mRNA = test: TNFα treated human cardiac fibroblasts, MMP-9 transcription (QPCR); type: cell-based; conditions: HCF
MMP-13 = MMP-13 (Homo sapiens, UniProt P45452); test: Direct enzyme inhibition, MMP-13; type: biochemical; conditions: 100 μM
MMP-9 [3] = test: PMA stimulated fibrosarcoma cell model (HT1080 cells), MMP-9; type: cell-based; conditions: 100 micromolar
MMP-2 [4] = test: PMA stimulated breast cancer cell model (HT1080 cells), pro-MMP-2 / MMP-2; type: cell-based; conditions: HT1080 cells, PMA
[5] = cancer patients, Phase I, cited from earlier work
[6] = Blood pressure in non-human primates; conditions: cynomolgus monkeys, over dosing period
MMP-2 [7] = biological target: T1, MMP-2 (Homo sapiens, UniProt P08253); test: Direct inhibition of recombinant MMP-2, fluorogenic substrate; type: biochemical; set-up: purchased R&D Systems, Ireland; conditions: 100 μM; read-out: inhibition of recombinant human MMP-2
T1 sequence (P08253 110-660): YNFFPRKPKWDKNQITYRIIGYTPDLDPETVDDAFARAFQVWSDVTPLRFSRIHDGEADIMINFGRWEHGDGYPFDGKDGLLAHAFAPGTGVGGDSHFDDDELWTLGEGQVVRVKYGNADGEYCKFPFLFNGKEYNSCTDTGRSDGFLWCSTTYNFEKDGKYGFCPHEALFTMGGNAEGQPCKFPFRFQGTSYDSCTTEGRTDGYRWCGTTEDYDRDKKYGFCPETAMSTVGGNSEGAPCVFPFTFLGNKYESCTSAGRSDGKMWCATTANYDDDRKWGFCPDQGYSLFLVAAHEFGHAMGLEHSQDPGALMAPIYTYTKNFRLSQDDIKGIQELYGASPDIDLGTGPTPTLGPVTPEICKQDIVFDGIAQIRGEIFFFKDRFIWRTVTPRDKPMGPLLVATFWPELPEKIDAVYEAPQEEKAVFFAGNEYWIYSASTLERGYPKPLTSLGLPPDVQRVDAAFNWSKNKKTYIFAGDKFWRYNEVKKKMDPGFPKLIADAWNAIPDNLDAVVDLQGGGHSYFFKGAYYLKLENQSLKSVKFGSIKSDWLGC

MMP-9 [8] = biological target: T2, MMP-9 (Homo sapiens, UniProt P14780); test: Model of direct enzyme inhibition, MMP-9 (IC50); type: biochemical
MMP-8 = MMP-8 (Homo sapiens, UniProt P22894); test: Direct enzyme inhibition, MMP-8; type: biochemical; conditions: 100 μM
MMP-9 [9] = test: PMA-stimulated CaCo2 cells, zymography of media, MMP-9; type: cell-based; conditions: CaCo2 cells, PMA, 150 uM
MMP-9 [10] = biological target: T2, MMP-9; test: Direct inhibition of recombinant MMP-9, fluorogenic substrate; type: biochemical; set-up: purchased R&D Systems, Ireland; conditions: 100 μM; read-out: inhibition of recombinant human MMP-9
MMP-2 [11] = biological target: T1, MMP-2; test: Model of direct enzyme inhibition, MMP-2 (IC50); type: biochemical
MMP-1 = biological target: T3, MMP-1 (Homo sapiens, UniProt P03956); test: Direct enzyme inhibition, MMP-1; type: biochemical; conditions: 100 μM
T3 sequence (P03956 100-469): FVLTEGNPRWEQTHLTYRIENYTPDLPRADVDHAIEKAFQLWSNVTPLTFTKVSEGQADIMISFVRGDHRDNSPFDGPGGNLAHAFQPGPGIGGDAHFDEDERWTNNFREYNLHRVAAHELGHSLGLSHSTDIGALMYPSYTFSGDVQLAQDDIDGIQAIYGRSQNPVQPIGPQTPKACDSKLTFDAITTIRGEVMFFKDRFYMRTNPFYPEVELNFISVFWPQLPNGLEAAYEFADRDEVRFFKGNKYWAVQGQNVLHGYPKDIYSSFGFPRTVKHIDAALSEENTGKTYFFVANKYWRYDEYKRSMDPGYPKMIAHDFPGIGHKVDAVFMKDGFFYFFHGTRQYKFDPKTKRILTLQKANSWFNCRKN

MMP-9 [12] = test: Total MMP-9 levels on repeated oral administration in non-human primates; type: in vivo, cynomolgus monkeys
human colon cancer cells = test: Colon cancer cell invasiveness, in vitro model; type: cell-based; conditions: low dose, FIG. 10
[13] = Plasma doxycycline and nitrite/nitrate (NOx) in non-human primates; type: in vivo, cynomolgus monkeys; conditions: cynomolgus monkey, po, 4.8 mg/kg doxycycline hyclate, day 3 of dosing, base equivalents, read-out: Maximum plasma doxycycline concentration (Cmax)
[14] = 75 μM, 24 hours, TNFα, mean ± SEM
[15] = 150 μM, 24 hours, TNFα, mean ± SEM

T2 sequence (P14780 94-707): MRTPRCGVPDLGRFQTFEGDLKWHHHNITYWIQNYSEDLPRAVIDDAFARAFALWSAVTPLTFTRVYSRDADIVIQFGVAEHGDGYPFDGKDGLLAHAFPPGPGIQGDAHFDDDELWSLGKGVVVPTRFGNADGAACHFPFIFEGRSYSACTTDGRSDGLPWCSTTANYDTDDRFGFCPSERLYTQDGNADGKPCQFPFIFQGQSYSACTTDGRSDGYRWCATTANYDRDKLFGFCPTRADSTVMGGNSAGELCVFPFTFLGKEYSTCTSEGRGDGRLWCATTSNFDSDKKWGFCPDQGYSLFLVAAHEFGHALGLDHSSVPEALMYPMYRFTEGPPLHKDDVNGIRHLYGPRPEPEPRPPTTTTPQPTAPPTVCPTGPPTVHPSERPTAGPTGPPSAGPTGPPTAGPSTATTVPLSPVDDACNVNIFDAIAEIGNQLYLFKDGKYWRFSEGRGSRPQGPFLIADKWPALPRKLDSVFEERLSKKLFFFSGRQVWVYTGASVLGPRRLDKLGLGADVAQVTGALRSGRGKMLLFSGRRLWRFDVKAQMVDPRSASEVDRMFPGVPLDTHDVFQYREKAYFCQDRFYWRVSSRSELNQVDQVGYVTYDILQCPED
MMP-8, sequence (P22894 101-467, species assumed): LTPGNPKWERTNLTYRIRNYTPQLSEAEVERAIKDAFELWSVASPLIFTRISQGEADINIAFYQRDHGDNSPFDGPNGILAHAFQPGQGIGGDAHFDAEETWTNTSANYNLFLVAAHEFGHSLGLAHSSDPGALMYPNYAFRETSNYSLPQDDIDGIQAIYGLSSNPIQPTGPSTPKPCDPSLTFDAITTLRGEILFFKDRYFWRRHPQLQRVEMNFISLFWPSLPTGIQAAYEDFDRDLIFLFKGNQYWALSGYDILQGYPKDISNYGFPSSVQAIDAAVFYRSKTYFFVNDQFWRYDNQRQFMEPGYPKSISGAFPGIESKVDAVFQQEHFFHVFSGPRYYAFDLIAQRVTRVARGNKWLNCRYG

C[C@H]1c2cccc(O)c2C(=O)C2=C(O)[C@]3(O)C(=O)C(C(N)=O)=C(O)[C@@H](N(C)C)[C@@H]3[C@@H](O)[C@@H]21 [Doxycycline, (4S,4aR,5S,5aR,6R,12aS)-4-(dimethylamino)-3,5,10,12,12a-pentahydroxy-6-methyl-1,11-dioxo-1,4,4a,5,5a,6,11,12a-octahydrotetracene-2-carboxamide, reference compound]
inhibition of MMP-2 activity relative to PMA positive control (MMP-2 [1]): 80% | MMP-2 mRNA expression (MMP-2 mRNA): no significant effects | Interleukin-1β protein level in PBMC supernatant [2, 14]: 34.6 ± 5.8 ng/mL | Interleukin-4 protein level in PBMC supernatant [2, 14]: 9.4 ± 1.2 ng/mL | Interleukin-5 protein level in PBMC supernatant [2, 14]: 40.8 ± 9.0 ng/mL | Interleukin-8 protein level in PBMC supernatant [2, 14]: 8852 ± 2568 ng/mL | Interleukin-10 protein level in PBMC supernatant [2, 14]: 136.6 ± 74.2 ng/mL | Interleukin-13 protein level in PBMC supernatant [2, 14]: 79.6 ± 17.2 ng/mL | MMP-1 protein level in PBMC supernatant [2, 14]: 144.0 ± 80.0 ng/mL | MMP-2 protein level in PBMC supernatant [2, 14]: 61.4 ± 54.2 ng/mL | MMP-10 protein level in PBMC supernatant [2, 14]: 36.0 ± 14.0 ng/mL | Interleukin-1β protein level in PBMC supernatant [2, 15]: 30.6 ± 5.0 ng/mL | Interleukin-4 protein level in PBMC supernatant [2, 15]: 9.8 ± 0.8 ng/mL | Interleukin-5 protein level in PBMC supernatant [2, 15]: 31.2 ± 5.8 ng/mL | Interleukin-10 protein level in PBMC supernatant [2, 15]: 92.2 ± 33.8 ng/mL | Interleukin-13 protein level in PBMC supernatant [2, 15]: 80.2 ± 3.2 ng/mL | MMP-1 protein level in PBMC supernatant [2, 15]: 134 ± 48 ng/mL | MMP-2 protein level in PBMC supernatant [2, 15]: 96.8 ± 80.6 ng/mL | MMP-10 protein level in PBMC supernatant [2, 15]: 47.6 ± 15.8 ng/mL | IL-8 levels in TNFalpha stimulated PBMCs (admixture study, FIG. 14) ([2]; 150 micromolar): also reduce IL-8 levels compared to controls | MMP-9 protein levels in treated cell supernatants (MMP-9 mRNA): below the lower limit of quantification | TNFα induced upregulation of MMP-9 mRNA (MMP-9 mRNA; 10 ng/mL TNFα 72 hours, 75 or 150 μM): In contrast to doxycycline hyclate, SI1004 significantly inhibited | inhibition at 100 µM (MMP-13): ~54% | MMP-9 production (MMP-9 [3]): reduce MMP-9 production | conversion of pro-MMP-2 to active MMP-2 (activation of MMP-2) (MMP-2 [4]; 100 μM): increase the conversion of available pro-MMP-2 to active MMP-2 | pro-MMP-2 production (MMP-2 [4]; 100 micromolar): reduce pro-MMP-2 production | oral dose resulting in dose-limiting toxicity (fatigue, confusion, nausea, vomiting) [5]: 400 mg administered twice a day | maximum tolerated dose ([5]; oral): 300 mg twice a day | diastolic blood pressure [6]: 58.6±6.0 mmHg | mean systolic blood pressure [6]: 109.7±7.1 mmHg | inhibition at 100 µM (MMP-2 [7]): 34 ± 3.5% | IC50 (MMP-9 [8]): ~164 µM and 164 µM | inhibition at 100 µM (MMP-8): ~42.7% | suppression of MMP-9 activity relative to PMA positive control (MMP-9 [9]): did not affect MMP-9 levels | inhibition at 100 µM (MMP-9 [10]): 33.3 ± 3.5% | IC50 (MMP-2 [11]): ~129 µM and 129 µM | inhibition at 100 µM (MMP-1): ~12% | total plasma MMP-9, median AUC (MMP-9 [12]; NHPs, daily orogastric gavage for 72 hours, n=6): 8.7 µg·h/mL | change in MMP-9 from baseline to 72 hours (MMP-9 [12]; cynomolgus monkeys, oral gavage once daily for three days, n=6 per group): MMP-9 levels increase | colon cancer cell invasiveness (human colon cancer cells): does not reduce colon cancer cell invasiveness | Cmax [13]: 5.1 µM
